According to patent US6632794B1, “Insulin-like growth factor agonist molecules” (Genentech, Inc., priority 1997, dated 2003):

Experiments:
[1] = tested on: mouse 3T3 cells; assay: ^3H-thymidine incorporation into mouse 3T3 cells; type: cell-based
Procedure: Assay 2: Increase in Cell Number of Mouse 3T3 Cells
The activity of the IGF mutant was also measured in a bioassay for the activity of IGF-I on DNA synthesis and cell replication. In this assay mouse 3T3 cells are cultured, and the IGF mutant or IGF-I is added, followed by tritiated ^3H-thymidine. The amount of ^3H-thymidine incorporated is a measure of the replication of DNA and thus of cell replication.

[2] = tested on: male Wistar rats; assay: IV injection into conscious normal rats, plasma glucose and insulin; type: in vivo, rat; conditions: 100 μg IV; for fall in blood glucose / plasma insulin response: after 10 mins
Procedure: Seven week old male Wistar rats (240-250 g, Charles Rivers Laboratories, Hollister, Calif.) were anesthetized with KETAMINE/XYLAZINE™ anesthesia and the right jugular vein was cannulated with a silicone rubber cannula that was developed for chronic blood sampling. Clark et al., J. Endocrinol., 111: 27-35 (1986). Following a two- to three-day recovery period, two basal blood samples were taken at −10 and −5 minutes, the test substances administered to the rats by IV injection, and then blood samples collected after 5, 10, 20, 30, 45, 60, and 120 minutes, and the plasma was immediately separated by centrifugation. The glucose and insulin concentrations were subsequently determined either by a coupled hexokinase procedure using a Chem 1A serum chemistry analyzer or, in the later case, a rat insulin RIA kit (Linco Research, Inc., St. Charles, Mo.).
Statistical comparisons were made by an analysis of variance (ANOVA) with a Duncan's Multiple Range test. A p value of <0.05 was considered as being statistically significant. All data are represented as the mean±SEM.
Two treatment groups, with five rats per group, were dosed IV with either (Leu^24,Ala^31)hIGF-I (100 μg) or PBS.
The rats in three treatment groups, with 4-5 rats per group, were dosed IV with either (Leu^24,Ala^31)hIGF-I (100 μg) or rhIGF-I (100 μg) and a control group was given PBS.

[3] = tested on: Zucker Diabetic Fatty rats; assay: IV bolus injection into diabetic rats, plasma glucose and insulin; type: in vivo, rat; conditions: ZDF rats, 100 μg IV; for fall in blood glucose: after 10 minutes
Procedure: Eighteen 7-week-old male Zucker Diabetic Fatty rats (250-300 g, Genetic Models Inc.) were anesthetized using KETAMINE™ (62.5 mg/kg)/ROMPUN XYLAZINE™ (12.5 mg/kg) anesthesia. The right jugular vein was cannulated using a silicone rubber catheter and the rats were allowed to recover.
Two days after surgery the rats (5-6/group) were divided into three treatment groups and given IV via the jugular catheter 200 μl of:
Three days later, using the same rats the study was repeated. The rats that were dosed with IGF-I in the initial study received the IGF mutant in the repeat study and vice versa. Control animals received PBS in both experiments.
Two blood samples were collected from each rat via the jugular cannula prior to IV dosing with the hormones and then blood samples were collected after 10, 30, 60, and 120 minutes. The plasma was immediately separated by centrifugation. The glucose concentration was measured by a coupled hexokinase procedure using a Chem 1A serum chemistry analyzer. Insulin concentration was measured using a rat insulin RIA kit (Linco Research, Inc., St. Charles, Mo.).
Statistical comparisons for each time point were made by an ANOVA with a Duncan's Multiple Range test. A p value of <0.05 was considered as being statistically significant. All data are represented as the mean±SEM, with five or six animals per treatment group.

[4] = tested on: Zucker Diabetic Fatty (ZDF) rats; assay: Long-term administration to diabetic rats incl. glucose tolerance test; type: in vivo, rat; conditions: for change in blood glucose two hours following the glucose challenge: glucose tolerance test day 14, 2 g/kg ip, 150 μg tid
Procedure: Obese male Zucker Diabetic Fatty (ZDF) rats (6-7 weeks of age, 225-250 g, Genetic Models Inc., Indianapolis, Ind. 46268) were group housed (3/cage) in a room controlled for temperature and lighting and fed the pelleted rat diet specified by the breeders (Purina 5008, 6% fat breeder chow) and tap water ad libitum. After three days acclimation, a blood sample was obtained from the tail vein for measurement of blood glucose and insulin, which was measured by rat-specific RIA (Linco Research Inc., St. Charles, Mo.). Animals were randomized into four treatment groups and into cages to give groups balance so as to have equivalent initial blood glucose levels, insulin levels, and body weights.
The experiment consisted of four groups of rats with seven rats per group.
1.0 The mutant (Leu^24,Ala^31)hIGF-I was prepared at two concentrations (1.5 mg/ml, and 0.5 mg/ml) so that with three injections per day two doses were given (a total of 450 μg/d or 150 μg/d). rhIGF-I was prepared at one concentration (1.5 mg/ml) so that with three injections per day one dose was given (450 μg/d). A fourth group of rats were given the excipient. The injections, each of 100 μl volume, were given at 7am, 1pm, and 7pm for 15 days without disrupting the controlled diurnal lighting of the vivarium room. Body weights were measured each day at 1 pm.
Blood samples were collected from non-fasted rats on the evening before the first day of dosing and on days 3, 7, and 10. Blood samples (400 μl) on days 3, 7, and 10 were taken by bleeding from a tail vein one hour after the mid-day injection. The blood was allowed to clot, and serum was separated and stored before analysis.
A glucose tolerance test was performed on day 14 of the study. Rats received their regular morning injection and then their food was withdrawn. After a 3-5-hour fast a blood sample (400 μl) was taken via the tail vein. Rats then received 2 g/kg dextrose(50%) by intraperitoneal (ip) injection. A blood sample (200 μl) was taken via tail vein at 10, 60, and 120 minutes after dextrose administration. Blood was allowed to clot and serum was separated and stored for measurement of glucose and insulin concentrations. After the glucose tolerance test was completed, animals were re-fed.
On day 15, one hour after the morning injection, rats were asphyxiated with carbon dioxide and bled by cardiac puncture. Blood was allowed to clot and serum was separated and frozen. Spleen, thymus, heart, liver, kidney, and perirenal fat were removed, blotted dry, and immediately weighed.
Statistical comparisons for each time point were made by an analysis of variance with a Duncan's Multiple Range test. A p value of <0.05 was considered as being statistically significant. All data are represented as the mean +SEM, with seven animals per treatment group.

[5] = Day 10, 150 μg three times a day
[6] = day 13, 150 μg three times a day SC
[7] = glucose tolerance test day 14, 150 μg tid

Row | Substance | ^3H-thymidine incorporation [1] | time plasma insulin remained depressed ([2]; Study Two) | fall in blood glucose ([2]; Study Two) | plasma insulin response ([2]; Study Two) | plasma insulin response ([3]; Study One) | fall in blood glucose ([3]; Study One) | plasma insulin response ([3]; Study Two) | fall in blood glucose ([3]; Study Two) | rise in blood glucose, percentage change from basal [4, 5] | body weight gain [4, 6] | insulin in response to the glucose challenge [4, 7] | change in blood glucose two hours following the glucose challenge [4] | plasma insulin levels, % of that of the control group ([2]; Study One) | time plasma insulin remained depressed ([2]; Study One) | fall in blood glucose ([2]; Study One) | rise in blood glucose, percentage change from basal ([4]; Day 10, 50 μg three times a day) | body weight gain ([4]; day 13, 50 μg three times a day SC) | insulin in response to the glucose challenge ([4]; glucose tolerance test day 14, 50 μg tid)
1 | IGF-I: native-sequence recombinant human insulin-like growth factor-I (Genentech) | increased thymidine incorporation in a dose-related manner | 120 min | brief but statistically significant fall in blood glucose | decreased significantly | large, and maintained fall in plasma insulin | immediate, moderate, and statistically significant | large, and maintained fall in plasma insulin | immediate, moderate, and statistically significant | 25±10% | 114.5 ± 1.6 g | 12.2 ± 0.7 ng/mL | 39 ± 12 mg/dL | – | – | – | – | – | –
2 | (Leu^24,Ala^31)hIGF-I | no activity | ≥ 120 min | small but statistically significant fall in blood glucose | fall in insulin concentrations of a similar magnitude and degree of statistical significance | suppressed blood insulin concentrations | smaller, but statistically significant | – | – | 74±22% | 105.1 ± 2.3 g | 10.6 ± 0.6 ng/mL | 59 ± 11 mg/dL | 25% | 60 min | brief but statistically significant | 84±20% | 100 ± 2.1 g | 10.2 ± 0.7 ng/mL
